Data reported in patent US8367737B2, “Method of using biothionol and biothionol-like compounds as anti-angiogenic agents” (Southern Research Institute, priority 2007, dated 2013).
Where a name gives a salt, the structure may show the parent alone.

Columns and labels:
[1] = system: arterial endothelia, such as HAEC and HPAEC; experiment: Cell proliferation assay (CellTiter-Glo), arterial endothelia; format: cell-based; conditions: Homo sapiens; 72 hours of treatment, growth medium
Description: (§1) Human primary cell lines, arterial endothelia, such as HAEC and HPAEC, venous endothelia HUVEC (from Cambrex BioScience Rockland Inc.), and lung fibroblasts LL47 (from the American Type Culture Collection) are cultured by following the instruction and used to evaluate the target compounds for their differential activity against human endothelia verses fibroblasts by CellTiter-Glo Luminescent Cell viability Assay. This assay, generating luminescent signals, is based on quantification of ATP levels in cell cultures. Amount of ATP produced in cell culture reflects the number of viable cells. […] Cells are seeded in 96-well plates with their growth medium, about 5×10^3 cell per well. After 24 hours, various doses of the target compounds are added to the cultures, having four replicates for each dose. After 72 hours of treatment, CellTiter-Glo reagent is added to the cultures following the manufacturer's instruction and luminescence is measured. The control groups are given DMSO vehicle only. IC50s of target compounds for endothelia and fibroblasts proliferation in their growth medium are determined based on the dose response curve and plotted against the range of concentrations.

venous endothelia HUVEC = experiment: Cell proliferation assay (CellTiter-Glo), venous endothelia; format: cell-based; conditions: Homo sapiens, 72 hours of treatment, growth medium
Description: as §1

lung fibroblasts LL47 = experiment: Cell proliferation assay (CellTiter-Glo), fibroblasts; format: cell-based; conditions: Homo sapiens, Fibroblast; 72 hours of treatment, growth medium
Description: as §1

[2] = system: Endothelial cells (HUVEC); experiment: Endothelial cell migration assay; format: cell-based; conditions: Homo sapiens, read-out: Inhibition in Endothlial migration
Description: Endothelial cell migration is a key step of the angiogenesis process, which is crucial for on-site recruitment of blood vessel formation. The trans-well filter/inserts chamber of Biocoat Endothelial Cell Migration Angiogenesis System (BD Biosciences) is used for endothelial cell migration assay, which is a 24-Transwell chamber plate containing 3-μm pore size inserts coated with human fibronectin. The inserts are incubated at 37° C. with 0.1% bovine serum albumin containing endothelial cell basal medium for 1 hour. Endothelial cells (HUVEC) are starved with 0.1% bovine serum albumin in endothelial cell basal medium for 4 to 5 hours before the cell harvest and then seeded (1×10^5 per well) in upper chambers of the Transwell plate with various treatments in 100 ul of 0.1% bovine serum albumin in endothelial cell basal medium. The full growth medium that contains various chemoattractants is added in the lower chambers. The cells are allowed to migrate for 22±1 hours at 37° C. Unmigrated cells at the inside of the inserts are carefully removed with a Q-tip. Migrated cells at the lower part of the Transwell inserts are then fixed with 4% paraformaldehyde, stained with Hoechst 33342, and photographed under a fluorescent microscope. Three microscopic view fields of each filter/insert are analyzed for the number of migrated cells. Triplicate filter/insert chamber cultures are carried for each test concentration and control.

[3] = system: Endothelial cells (HUVEC); experiment: Endothelial tube formation assay; format: cell-based; conditions: Homo sapiens, read-out: Inhibition in Endothlia Tube-Formation
Description: Human endothelial cells are cultured in vitro on extracellular matrix, which stimulates the attachment and differentiation of endothelial cells into tubules. The endothelial tube formation assay is based on this phenomenon. Endothelial cells (HUVEC) are seeded (1.5×10^4 per well) in a 96-well plates coated with extracellular matrix and treated with the target compounds at different concentrations with the full growth medium in triplicate. The cells are allowed to form endothelial tubes at 37° C. for about 18 hours and photographed under an inverted light microscope. The tubule lengths are quantified using image analysis software, Image-Pro Plus (Media Cybernetics, Inc., Silver Spring, Md.). Data are expressed as average tube lengths of three view fields for each well and triplicate wells for each treatment condition. IC50 values are calculated based on the dose curve.

[4] = system: Chicken embryo chorioallantoic membrane; experiment: Chick chorioallantoic membrane (CAM) assay; format: in vivo; conditions: 10 μg; vascular density index
Description: Chicken embryo chorioallantoic membrane provides an ideal in vivo model for the physiologic process of angiogenesis. Angiogenic modulators applied on methylcellulose discs placed on top of chicken embryo chorioallantoic membrane are able to alter the development of new blood vasculature. See Staton et al, Current Methods for Assaying Angiogenesis in vitro and in vivo, INT. J. EXP. PATHOL., 85:233-48 (2004), which is incorporated herein by reference in its entirety. The angiogenesis chorioallantoic membrane assay is used for ex vivo evaluation of the anti-angiogenic potential of synthetic compounds. Fertilized chicken eggs are incubated at 37.5° C. in a humidified egg incubator with forced air circulation. On embryo Day 3, eggs are cracked open and embryos are transferred into […] Petri plates to continue their development in a cell culture incubator at 37.5° C. Pre-made methylcellulose discs in about 2 mm in diameter are gently implanted on top of embryo chorioallantoic membrane on embryonic Day 5 and then testing compound in solution or control vehicle is applied on top of methylcellulose disc. The embryos are incubated for two more days in the cell culture incubator. The chorioallantoic membranes are examined and quantitatively analyzed for new blood vessel formation at embryonic Day 7. The treatment effects on angiogenesis are evaluated by determining vascular density index (VDI) of each CAM with viable chicken embryos. The VDI represents the number of intersections made by blood vessels with three equidistant concentric circles on the area covered by methylcellulose discs by using Image Pro Plus software. The data are expressed as average VDI based on the quantitative analysis for each treatment group (N≧5) with stander deviation.

Compound	IC50 [1]	IC50 (venous endothelia HUVEC)	IC50 (lung fibroblasts LL47)	inhibition at 2 µM [2]	inhibition at 8 µM [2]	inhibition at 2 µM [3]	inhibition at 8 µM [3]	Inhibition in CAM Assay [4]
Oc1c(Cl)cc(Cl)cc1Sc1cc(Cl)cc(Cl)c1O [Bithionol]	2 µM	6 µM	10.5 µM	5%	100%	19%	38%	30%
CC(C)(C)c1ccc(C(O)CCCN2CCC(C(O)(c3ccccc3)c3ccccc3)CC2)cc1 (centres unmarked) [Terfenadine]	3 µM	5.5 µM	7 µM	34%	100%	20%	43%	28%
Cc1nc2sccn2c(=O)c1CCN1CCC(=C(c2ccc(F)cc2)c2ccc(F)cc2)CC1 [Ritanserin]	11 µM	10.5 µM	> 50 µM	55%	65%	11%	33%	21%
CCCCc1oc2ccccc2c1C(=O)c1cc(I)c(OCCN(CC)CC)c(I)c1 [Amiodarone hydrochloride]				36%	38%	33%	33%	27%
OCCN1CCN(CCCN2c3ccccc3Sc3ccc(Cl)cc32)CC1 [Perphenazine]	4.2 µM	11.1 µM	10.8 µM	43%	46%	7%	22%	
CN(C)CCCN1c2ccccc2CCc2ccc(Cl)cc21 [Clomipramine hydrochloride]				58%	63%	12%	26%	19%
